The record followed here is ChEMBL document CHEMBL1697731, “Cheminformatics analysis of assertions mined from literature that describe drug-induced liver injury in different species” (Chem Res Toxicol, 2010).

Where a SMILES comes first, the peptide text is derived from it. Bridges are numbered along the chain shown (N, C = ends). [ ]: non-standard residue; d: D form. The star is where a group is joined. Threoninol(2S,3R) = C[C@@H](O)[C@H](CO)N*

Data set [1] relates to Hepatotoxicity. The experiment in a line: Literature-mined compound from Fourches et al multi-species drug-induced liver injury (DILI) dataset, effect in humans. To be noted: human.
Data set [2] concerns Hepatotoxicity. In words: Literature-mined compound from Fourches et al multi-species drug-induced liver injury (DILI) dataset, effect in rodents. To be noted: rodentia.
The subject of data set [3] is Hepatotoxicity. The experiment in a line: Literature-mined compound from Fourches et al multi-species drug-induced liver injury (DILI) dataset, effect in non-rodents.

Regarding `Cc1ccc(C(=O)c2cc(O)c(O)c([N+](=O)[O-])c2)cc1` [TOLCAPONE], the Hepatotoxicity entry is “drug-induced liver injury reported” in the data set on Hepatotoxicity [1] (Liver), “drug-induced liver injury reported” in the data set on Hepatotoxicity [2] (Liver) and “no drug-induced liver injury reported” in the data set with Hepatotoxicity [3] (Liver).

Take `NCC(CC(=O)O)c1ccc(Cl)cc1` (stereo not drawn) [BACLOFEN]: the values for the Hepatotoxicity entry in the data set with Hepatotoxicity [1], with Hepatotoxicity [2] and in the data set on Hepatotoxicity [3] were “drug-induced liver injury reported”, “no drug-induced liver injury reported” and “no drug-induced liver injury reported”, respectively.

For `C[C@@H](O)[C@H](CO)NC(=O)[C@@H]1CSSC[C@H](NC(=O)[C@H](N)Cc2ccccc2)C(=O)N[C@@H](Cc2ccccc2)C(=O)N[C@H](Cc2c[nH]c3ccccc23)C(=O)N[C@@H](CCCCN)C(=O)N[C@@H]([C@@H](C)O)C(=O)N1` (H-[dF]CF[dW]KTC-{Threoninol(2S,3R)}; disulfide 2-7), the Hepatotoxicity entry in the data set with Hepatotoxicity [1] is listed as “drug-induced liver injury reported”; in the data set on Hepatotoxicity [2], “drug-induced liver injury reported”; in the data set on Hepatotoxicity [3], “no drug-induced liver injury reported”.

Consider `Nc1ccc(C(=O)O)cc1` [AMINOBENZOIC ACID], for which the Hepatotoxicity entry with Hepatotoxicity [1] is on record as “no drug-induced liver injury reported”; with Hepatotoxicity [2] it was “drug-induced liver injury reported”; in the data set with Hepatotoxicity [3] it was “no drug-induced liver injury reported”.

Take `O=C([O-])c1c(Cl)c(Cl)c(Cl)c(Cl)c1-c1c2cc(I)c(=O)c(I)c-2oc2c(I)c([O-])c(I)cc12.[Na+].[Na+]` [ROSE BENGAL SODIUM]: the values for the Hepatotoxicity entry with Hepatotoxicity [1], with Hepatotoxicity [2] and in the data set with Hepatotoxicity [3] were “no drug-induced liver injury reported”, “drug-induced liver injury reported” and “no drug-induced liver injury reported”, respectively.

As to `C=CCC1(CC=C)C(=O)NC(=O)NC1=O` [ALLOBARBITAL], the Hepatotoxicity result is “no drug-induced liver injury reported” with Hepatotoxicity [1], “drug-induced liver injury reported” with Hepatotoxicity [2] and “no drug-induced liver injury reported” in the data set with Hepatotoxicity [3].

`COC1=C2C[C@@H](C)C[C@H](OC)[C@H](O)[C@@H](C)/C=C(\C)[C@H](OC(N)=O)[C@@H](OC)/C=C\C=C(/C)C(=O)NC(=CC1=O)C2=O` [GELDANAMYCIN]: the Hepatotoxicity result with Hepatotoxicity [1] was “drug-induced liver injury reported”; in the data set with Hepatotoxicity [2], “no drug-induced liver injury reported”; in the data set with Hepatotoxicity [3], “no drug-induced liver injury reported”.

In the case of `C[C@]12CC[C@@H]3c4ccc(OS(=O)(=O)O)cc4CC[C@H]3[C@@H]1CCC2=O` [ESTRONE SULFURIC ACID], the Hepatotoxicity result in the data set with Hepatotoxicity [1] is recorded as “no drug-induced liver injury reported”; with Hepatotoxicity [2], “drug-induced liver injury reported”; in the data set on Hepatotoxicity [3], “no drug-induced liver injury reported”.

With `CC[C@]1(O)C[C@H]2CN(CCc3c([nH]c4ccccc34)[C@@](C(=O)OC)(c3cc4c(cc3OC)N(C=O)[C@H]3[C@@](O)(C(=O)OC)[C@H](OC(C)=O)[C@]5(CC)C=CCN6CC[C@]43[C@@H]65)C2)C1` [VINCRISTINE], the Hepatotoxicity result with Hepatotoxicity [1], with Hepatotoxicity [2] and with Hepatotoxicity [3] was “drug-induced liver injury reported” in each case.

Regarding `OCCOCCN1CCN(C(c2ccccc2)c2ccc(Cl)cc2)CC1` (stereo not drawn) [HYDROXYZINE], the Hepatotoxicity entry in the data set with Hepatotoxicity [1] is “drug-induced liver injury reported”; in the data set on Hepatotoxicity [2] it was “no drug-induced liver injury reported”; in the data set on Hepatotoxicity [3], “no drug-induced liver injury reported”.

With `CO[C@]12CC[C@@]3(C[C@@H]1[C@](C)(O)C(C)(C)C)[C@H]1Cc4ccc(O)c5c4[C@@]3(CCN1CC1CC1)[C@H]2O5` [BUPRENORPHINE], the results for the Hepatotoxicity entry in the data set on Hepatotoxicity [1], with Hepatotoxicity [2] and in the data set on Hepatotoxicity [3] were “drug-induced liver injury reported”, “drug-induced liver injury reported” and “no drug-induced liver injury reported”, respectively.

As for `O=C(O)[C@H](CC(=O)N1C[C@H]2CCCC[C@H]2C1)Cc1ccccc1` [MITIGLINIDE], the Hepatotoxicity result is “no drug-induced liver injury reported” with Hepatotoxicity [1], “drug-induced liver injury reported” with Hepatotoxicity [2] and “no drug-induced liver injury reported” with Hepatotoxicity [3].

Regarding `CC[C@]1(O)C[C@@H]2CN(CCc3c([nH]c4ccccc34)[C@@](C(=O)OC)(c3cc4c(cc3OC)N(C)[C@H]3[C@@](O)(C(=O)OC)[C@H](OC(C)=O)[C@]5(CC)C=CCN6CC[C@]43[C@@H]65)C2)C1` [VINBLASTINE], the results for the Hepatotoxicity entry in the data set on Hepatotoxicity [1], in the data set with Hepatotoxicity [2] and in the data set on Hepatotoxicity [3] were “drug-induced liver injury reported”, “drug-induced liver injury reported” and “no drug-induced liver injury reported”, respectively.

For the compound `NC(=O)c1csc([C@@H]2O[C@H](CO)[C@@H](O)[C@H]2O)n1` [TIAZOFURIN], the Hepatotoxicity entry is reported as “no drug-induced liver injury reported” with Hepatotoxicity [1], “drug-induced liver injury reported” in the data set on Hepatotoxicity [2] and “no drug-induced liver injury reported” in the data set on Hepatotoxicity [3].

`CN1CCC(=C2c3ccccc3C=Cc3ccccc32)CC1` [CYPROHEPTADINE]: the Hepatotoxicity result is on record as “drug-induced liver injury reported” in the data set on Hepatotoxicity [1], “drug-induced liver injury reported” in the data set on Hepatotoxicity [2] and “no drug-induced liver injury reported” in the data set with Hepatotoxicity [3].

For `ClC=C(Cl)Cl` [TRICHLOROETHYLENE], the figures for the Hepatotoxicity entry in the data set with Hepatotoxicity [1], with Hepatotoxicity [2] and in the data set on Hepatotoxicity [3] were “drug-induced liver injury reported”, “drug-induced liver injury reported” and “no drug-induced liver injury reported”, respectively.

Take `Cc1ccc(C)c(OCCCC(C)(C)C(=O)O)c1` [GEMFIBROZIL]: the values for the Hepatotoxicity entry with Hepatotoxicity [1], in the data set with Hepatotoxicity [2] and in the data set with Hepatotoxicity [3] were “drug-induced liver injury reported”, “drug-induced liver injury reported” and “no drug-induced liver injury reported”, respectively.

For the compound BLEOMYCIN, the Hepatotoxicity entry in the data set on Hepatotoxicity [1] is “drug-induced liver injury reported”; in the data set on Hepatotoxicity [2], “drug-induced liver injury reported”; in the data set with Hepatotoxicity [3], “no drug-induced liver injury reported”.

Consider `NC(N)=O` [UREA], for which the values for the Hepatotoxicity entry in the data set with Hepatotoxicity [1], in the data set with Hepatotoxicity [2] and with Hepatotoxicity [3] were “no drug-induced liver injury reported”, “drug-induced liver injury reported” and “no drug-induced liver injury reported”, respectively.

With `O=NN(CCCl)C(=O)NCCCl` [CARMUSTINE], the Hepatotoxicity result is recorded as “drug-induced liver injury reported” with Hepatotoxicity [1], “drug-induced liver injury reported” in the data set on Hepatotoxicity [2] and “no drug-induced liver injury reported” with Hepatotoxicity [3].

On to `CC(C)(C#N)c1cc(Cn2cncn2)cc(C(C)(C)C#N)c1` [ANASTROZOLE], for which the Hepatotoxicity entry in the data set with Hepatotoxicity [1] is on record as “drug-induced liver injury reported”; in the data set with Hepatotoxicity [2], “no drug-induced liver injury reported”; in the data set on Hepatotoxicity [3] it was “no drug-induced liver injury reported”.

On to `C=C(C)[C@@H]1CC[C@]2(C(=O)O)CC[C@]3(C)[C@H](CC[C@@H]4[C@@]5(C)CC[C@H](O)C(C)(C)[C@@H]5CC[C@]43C)[C@@H]12` [BETULINIC ACID], for which the Hepatotoxicity result in the data set with Hepatotoxicity [1] is given as “drug-induced liver injury reported”; with Hepatotoxicity [2] it was “no drug-induced liver injury reported”; in the data set on Hepatotoxicity [3], “no drug-induced liver injury reported”.

`CNC(=O)[C@H]1O[C@@H](n2cnc3c(NCc4cccc(I)c4)ncnc32)[C@H](O)[C@@H]1O` [IB-MECA]: the Hepatotoxicity result in the data set on Hepatotoxicity [1] was “no drug-induced liver injury reported”; in the data set with Hepatotoxicity [2] it was “drug-induced liver injury reported”; with Hepatotoxicity [3] it was “no drug-induced liver injury reported”.

Regarding `O=C(NCC1CCCCN1)c1cc(OCC(F)(F)F)ccc1OCC(F)(F)F` (stereo not drawn) [FLECAINIDE], the figures for the Hepatotoxicity entry in the data set with Hepatotoxicity [1], in the data set with Hepatotoxicity [2] and in the data set on Hepatotoxicity [3] were “drug-induced liver injury reported”, “no drug-induced liver injury reported” and “no drug-induced liver injury reported”, respectively.

Turning to `CC#CCC(C)[C@H](O)/C=C/[C@@H]1[C@H]2c3cccc(CCCC(=O)O)c3O[C@H]2C[C@H]1O` (stereo partly drawn) [BERAPROST], the Hepatotoxicity result in the data set on Hepatotoxicity [1] is “no drug-induced liver injury reported”; with Hepatotoxicity [2], “drug-induced liver injury reported”; in the data set on Hepatotoxicity [3] it was “no drug-induced liver injury reported”.

With `COc1cc([C@@H]2c3cc4c(cc3[C@@H](O[C@@H]3O[C@@H]5CO[C@@H](C)O[C@H]5[C@H](O)[C@H]3O)[C@H]3COC(=O)[C@H]23)OCO4)cc(OC)c1O` [ETOPOSIDE], the results for the Hepatotoxicity result in the data set with Hepatotoxicity [1] (Liver), in the data set on Hepatotoxicity [2] (Liver) and in the data set on Hepatotoxicity [3] (Liver) were “drug-induced liver injury reported”, “drug-induced liver injury reported” and “no drug-induced liver injury reported”, respectively.

Take TYLOXAPOL: the Hepatotoxicity entry is on record as “no drug-induced liver injury reported” with Hepatotoxicity [1], “drug-induced liver injury reported” with Hepatotoxicity [2] and “no drug-induced liver injury reported” with Hepatotoxicity [3].

As to `CCC(C)n1ncn(-c2ccc(N3CCN(c4ccc(OCC5COC(Cn6cncn6)(c6ccc(Cl)cc6Cl)O5)cc4)CC3)cc2)c1=O` (stereo not drawn) [ITRACONAZOLE], the Hepatotoxicity entry in the data set on Hepatotoxicity [1] is listed as “drug-induced liver injury reported”; with Hepatotoxicity [2], “drug-induced liver injury reported”; in the data set on Hepatotoxicity [3] it was “no drug-induced liver injury reported”.

On to `O=c1c(-c2ccccc2)coc2ccccc12` [ISOFLAVONE], for which the Hepatotoxicity entry in the data set on Hepatotoxicity [1] is reported as “no drug-induced liver injury reported”; in the data set on Hepatotoxicity [2], “no drug-induced liver injury reported”; in the data set with Hepatotoxicity [3], “drug-induced liver injury reported”.

Regarding `Cc1ccc(N(CC2=NCCN2)c2cccc(O)c2)cc1` [PHENTOLAMINE], the figures for the Hepatotoxicity entry with Hepatotoxicity [1], in the data set on Hepatotoxicity [2] and in the data set with Hepatotoxicity [3] were “no drug-induced liver injury reported”, “drug-induced liver injury reported” and “drug-induced liver injury reported”, respectively.

`CN1CCc2cccc3c2[C@H]1Cc1ccc(O)c(O)c1-3` [APOMORPHINE]: the Hepatotoxicity result in the data set with Hepatotoxicity [1] was “no drug-induced liver injury reported”; in the data set on Hepatotoxicity [2], “drug-induced liver injury reported”; in the data set with Hepatotoxicity [3], “no drug-induced liver injury reported”.
